# pIC50, pKi: −log10 of the molar value.
# Biological target: T1, 5-hydroxytryptamine receptor 2C (Homo sapiens, UniProt P28335)
# T1 sequence (P28335 whole entry): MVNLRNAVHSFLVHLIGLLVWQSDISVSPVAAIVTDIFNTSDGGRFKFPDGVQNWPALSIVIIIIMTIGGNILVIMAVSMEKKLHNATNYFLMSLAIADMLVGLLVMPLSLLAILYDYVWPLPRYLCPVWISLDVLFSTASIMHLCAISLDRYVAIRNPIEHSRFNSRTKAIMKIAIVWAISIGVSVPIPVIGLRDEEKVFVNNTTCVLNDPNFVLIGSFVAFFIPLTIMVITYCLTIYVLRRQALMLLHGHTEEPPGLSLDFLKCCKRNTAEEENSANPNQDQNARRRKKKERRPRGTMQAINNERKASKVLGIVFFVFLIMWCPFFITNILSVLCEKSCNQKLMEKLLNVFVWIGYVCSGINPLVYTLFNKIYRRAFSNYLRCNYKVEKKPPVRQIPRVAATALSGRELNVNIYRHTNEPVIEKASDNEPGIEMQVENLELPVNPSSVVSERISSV
# Assay: DRUGMATRIX: Serotonin (5-Hydroxytryptamine) 5-HT2C radioligand binding (ligand: [3H] Mesulergine)
# Assay type: cell membranes, CHO-K1, Membrane
# Details: Not Active = under 50% inhibition at 10 µM; read-out: IC50
row,Structure (SMILES),pIC50
1,CN1[C@@H]2CC[C@H]1C[C@@H](OC(c1ccccc1)c1ccccc1)C2 [BENZTROPINE],7.21
2,Clc1ccc(COC(Cn2ccnc2)c2ccc(Cl)cc2Cl)c(Cl)c1 (centres undefined) [MICONAZOLE],5.27

# Same assay, conditions: Not Active = under 50% inhibition at 10 µM; read-out: Ki
row,Structure (SMILES),pKi
1,CN1[C@@H]2CC[C@H]1C[C@@H](OC(c1ccccc1)c1ccccc1)C2 [BENZTROPINE],7.49
2,Clc1ccc(COC(Cn2ccnc2)c2ccc(Cl)cc2Cl)c(Cl)c1 (centres undefined) [MICONAZOLE],5.56

# Same assay, conditions: cho-k1; Not Active = under 50% inhibition at 10 µM
row,Structure (SMILES),IC50
1,CCCCC(=O)N(Cc1ccc(-c2ccccc2-c2nnn[nH]2)cc1)[C@H](C(=O)O)C(C)C,Not Active
2,O=C(O)COc1ccc(C(=O)c2cccs2)c(Cl)c1Cl,Not Active
3,C[C@@](Cc1ccc(O)c(O)c1)(NN)C(=O)O.O [CARBIDOPA],Not Active
4,CC(C)NC[C@@H](O)COc1cccc2ccccc12 [DEXPROPRANOLOL],Not Active

# Biological target: T2, Substance-K receptor (Homo sapiens, UniProt P21452); note: in other assays of this panel Not Active means under 50% inhibition at 10 µM
# T2 sequence (P21452 whole entry): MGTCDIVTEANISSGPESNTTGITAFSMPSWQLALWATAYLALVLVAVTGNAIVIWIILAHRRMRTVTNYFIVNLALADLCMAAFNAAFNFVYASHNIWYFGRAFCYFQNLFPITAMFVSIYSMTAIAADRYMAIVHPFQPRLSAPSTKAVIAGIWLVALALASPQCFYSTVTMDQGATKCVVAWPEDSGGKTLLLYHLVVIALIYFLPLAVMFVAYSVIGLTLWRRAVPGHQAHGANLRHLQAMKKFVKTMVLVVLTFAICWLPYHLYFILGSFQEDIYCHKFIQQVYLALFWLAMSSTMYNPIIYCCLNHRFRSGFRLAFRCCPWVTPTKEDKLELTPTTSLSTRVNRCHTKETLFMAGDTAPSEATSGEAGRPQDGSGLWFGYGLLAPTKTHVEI
# Assay type: cell membranes, CHO, Membrane
# Details: cho
row,Structure (SMILES),IC50
1,CCCCC(=O)N(Cc1ccc(-c2ccccc2-c2nnn[nH]2)cc1)[C@H](C(=O)O)C(C)C,Not Active
2,O=C(O)COc1ccc(C(=O)c2cccs2)c(Cl)c1Cl,Not Active
3,CN1[C@@H]2CC[C@H]1C[C@@H](OC(c1ccccc1)c1ccccc1)C2 [BENZTROPINE],Not Active
4,C[C@@](Cc1ccc(O)c(O)c1)(NN)C(=O)O.O [CARBIDOPA],Not Active
5,CC(C)NC[C@@H](O)COc1cccc2ccccc12 [DEXPROPRANOLOL],Not Active

# Same assay, conditions: read-out: IC50
row,Structure (SMILES),pIC50
1,Clc1ccc(COC(Cn2ccnc2)c2ccc(Cl)cc2Cl)c(Cl)c1 (centres undefined) [MICONAZOLE],5.32

# Same assay, conditions: read-out: Ki
row,Structure (SMILES),pKi
1,Clc1ccc(COC(Cn2ccnc2)c2ccc(Cl)cc2Cl)c(Cl)c1 (centres undefined) [MICONAZOLE],5.79

# Biological target: C-C chemokine receptor type 2 (Homo sapiens, UniProt P41597); note: in other assays of this panel Not Active means under 50% inhibition at 10 µM
# Sequence (P41597 whole entry): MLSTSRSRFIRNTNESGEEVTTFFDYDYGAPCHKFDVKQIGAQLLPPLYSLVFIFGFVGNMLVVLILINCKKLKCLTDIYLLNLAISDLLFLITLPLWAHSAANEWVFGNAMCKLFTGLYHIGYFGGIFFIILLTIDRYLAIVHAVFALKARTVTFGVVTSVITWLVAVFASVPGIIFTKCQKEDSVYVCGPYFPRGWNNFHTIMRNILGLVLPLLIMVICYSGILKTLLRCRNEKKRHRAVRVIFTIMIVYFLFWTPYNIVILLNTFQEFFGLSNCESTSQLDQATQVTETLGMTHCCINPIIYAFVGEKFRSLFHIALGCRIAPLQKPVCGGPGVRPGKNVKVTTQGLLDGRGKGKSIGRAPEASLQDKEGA
# Assay type: cell membranes, Membrane
# Details: cho-k1
row,Structure (SMILES),IC50
1,O=C(O)COc1ccc(C(=O)c2cccs2)c(Cl)c1Cl,Not Active
2,CN1[C@@H]2CC[C@H]1C[C@@H](OC(c1ccccc1)c1ccccc1)C2 [BENZTROPINE],Not Active
3,C[C@@](Cc1ccc(O)c(O)c1)(NN)C(=O)O.O [CARBIDOPA],Not Active
4,CC(C)NC[C@@H](O)COc1cccc2ccccc12 [DEXPROPRANOLOL],Not Active
5,Clc1ccc(COC(Cn2ccnc2)c2ccc(Cl)cc2Cl)c(Cl)c1 (centres undefined) [MICONAZOLE],Not Active

# Biological target: T3, C-X-C chemokine receptor type 2 (Homo sapiens, UniProt P25025); note: in other assays of this panel Not Active means under 50% inhibition at 10 µM
# T3 sequence (P25025 whole entry): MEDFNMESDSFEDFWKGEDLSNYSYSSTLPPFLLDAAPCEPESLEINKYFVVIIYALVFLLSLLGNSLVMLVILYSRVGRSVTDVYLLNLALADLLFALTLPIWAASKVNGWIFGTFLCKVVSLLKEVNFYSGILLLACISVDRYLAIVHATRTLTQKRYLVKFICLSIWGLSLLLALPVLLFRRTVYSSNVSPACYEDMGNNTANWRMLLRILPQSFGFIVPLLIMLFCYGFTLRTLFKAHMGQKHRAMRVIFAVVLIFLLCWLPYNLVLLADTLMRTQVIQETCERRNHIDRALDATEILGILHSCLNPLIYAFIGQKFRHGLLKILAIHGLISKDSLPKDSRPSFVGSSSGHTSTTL
# Assay type: cell membranes, Membrane
# Details: cho-k1
row,Structure (SMILES),IC50
1,CCCCC(=O)N(Cc1ccc(-c2ccccc2-c2nnn[nH]2)cc1)[C@H](C(=O)O)C(C)C,Not Active
2,O=C(O)COc1ccc(C(=O)c2cccs2)c(Cl)c1Cl,Not Active
3,CN1[C@@H]2CC[C@H]1C[C@@H](OC(c1ccccc1)c1ccccc1)C2 [BENZTROPINE],Not Active
4,C[C@@](Cc1ccc(O)c(O)c1)(NN)C(=O)O.O [CARBIDOPA],Not Active
5,CC(C)NC[C@@H](O)COc1cccc2ccccc12 [DEXPROPRANOLOL],Not Active
6,Clc1ccc(COC(Cn2ccnc2)c2ccc(Cl)cc2Cl)c(Cl)c1 (centres undefined) [MICONAZOLE],Not Active

# Biological target: T4, Cysteinyl leukotriene receptor 1 (Homo sapiens, UniProt Q9Y271); note: in other assays of this panel Not Active means under 50% inhibition at 10 µM
# T4 sequence (Q9Y271 whole entry): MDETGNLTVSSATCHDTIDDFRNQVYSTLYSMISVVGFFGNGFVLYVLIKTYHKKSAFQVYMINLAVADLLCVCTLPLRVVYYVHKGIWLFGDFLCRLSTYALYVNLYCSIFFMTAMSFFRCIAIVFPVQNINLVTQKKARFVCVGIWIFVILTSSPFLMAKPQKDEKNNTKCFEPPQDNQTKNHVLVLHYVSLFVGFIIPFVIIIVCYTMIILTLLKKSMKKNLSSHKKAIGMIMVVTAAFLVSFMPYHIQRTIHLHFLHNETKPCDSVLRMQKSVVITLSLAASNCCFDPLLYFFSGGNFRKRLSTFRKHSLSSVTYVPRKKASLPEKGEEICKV
# Assay type: cell membranes, Membrane
# Details: cho-k1
row,Structure (SMILES),IC50
1,CCCCC(=O)N(Cc1ccc(-c2ccccc2-c2nnn[nH]2)cc1)[C@H](C(=O)O)C(C)C,Not Active
2,O=C(O)COc1ccc(C(=O)c2cccs2)c(Cl)c1Cl,Not Active
3,CN1[C@@H]2CC[C@H]1C[C@@H](OC(c1ccccc1)c1ccccc1)C2 [BENZTROPINE],Not Active
4,C[C@@](Cc1ccc(O)c(O)c1)(NN)C(=O)O.O [CARBIDOPA],Not Active
5,CC(C)NC[C@@H](O)COc1cccc2ccccc12 [DEXPROPRANOLOL],Not Active
6,Clc1ccc(COC(Cn2ccnc2)c2ccc(Cl)cc2Cl)c(Cl)c1 (centres undefined) [MICONAZOLE],Not Active

# Biological target: cGMP-specific 3',5'-cyclic phosphodiesterase (Homo sapiens, UniProt O76074)
# Assay: DRUGMATRIX: Phosphodiesterase PDE5 enzyme inhibition (substrate: [3H]cGMP + cGMP)
# Assay type: tissue-based, Platelet
# Details: platelet; Not Active = under 50% inhibition at 10 µM
row,Structure (SMILES),IC50
1,CCCCC(=O)N(Cc1ccc(-c2ccccc2-c2nnn[nH]2)cc1)[C@H](C(=O)O)C(C)C,Not Active
2,O=C(O)COc1ccc(C(=O)c2cccs2)c(Cl)c1Cl,Not Active
3,CN1[C@@H]2CC[C@H]1C[C@@H](OC(c1ccccc1)c1ccccc1)C2 [BENZTROPINE],Not Active
4,C[C@@](Cc1ccc(O)c(O)c1)(NN)C(=O)O.O [CARBIDOPA],Not Active
5,CC(C)NC[C@@H](O)COc1cccc2ccccc12 [DEXPROPRANOLOL],Not Active
6,Clc1ccc(COC(Cn2ccnc2)c2ccc(Cl)cc2Cl)c(Cl)c1 (centres undefined) [MICONAZOLE],Not Active

# Biological target: Acetylcholinesterase (Homo sapiens, UniProt P22303)
# Sequence (P22303 whole entry): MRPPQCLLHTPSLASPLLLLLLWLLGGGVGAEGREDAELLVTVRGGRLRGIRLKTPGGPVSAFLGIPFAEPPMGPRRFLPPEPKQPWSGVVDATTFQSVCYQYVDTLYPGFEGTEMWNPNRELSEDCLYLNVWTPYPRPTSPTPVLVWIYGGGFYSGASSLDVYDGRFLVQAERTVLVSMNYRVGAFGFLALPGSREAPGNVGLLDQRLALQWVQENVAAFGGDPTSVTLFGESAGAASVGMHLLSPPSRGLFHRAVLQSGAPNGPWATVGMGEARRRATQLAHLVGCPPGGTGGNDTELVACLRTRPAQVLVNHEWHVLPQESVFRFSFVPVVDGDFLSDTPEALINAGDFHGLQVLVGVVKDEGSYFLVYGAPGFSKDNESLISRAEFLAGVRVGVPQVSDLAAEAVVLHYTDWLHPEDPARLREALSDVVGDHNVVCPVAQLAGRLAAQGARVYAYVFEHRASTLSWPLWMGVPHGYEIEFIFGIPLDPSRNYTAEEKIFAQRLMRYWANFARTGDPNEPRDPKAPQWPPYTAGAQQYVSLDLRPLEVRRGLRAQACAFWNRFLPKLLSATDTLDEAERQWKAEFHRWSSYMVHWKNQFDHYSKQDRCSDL
# Assay: DRUGMATRIX: Acetylcholinesterase enzyme inhibition (substrate: acetylthiocholine)
# Assay type: cell-based, HEK293
# Details: Not Active = under 50% inhibition at 10 µM; read-out: IC50
row,Structure (SMILES),pIC50
1,Clc1ccc(COC(Cn2ccnc2)c2ccc(Cl)cc2Cl)c(Cl)c1 (centres undefined) [MICONAZOLE],4.73

# Same assay, conditions: hek293; Not Active = under 50% inhibition at 10 µM
row,Structure (SMILES),IC50
1,CCCCC(=O)N(Cc1ccc(-c2ccccc2-c2nnn[nH]2)cc1)[C@H](C(=O)O)C(C)C,Not Active
2,O=C(O)COc1ccc(C(=O)c2cccs2)c(Cl)c1Cl,Not Active
3,CN1[C@@H]2CC[C@H]1C[C@@H](OC(c1ccccc1)c1ccccc1)C2 [BENZTROPINE],Not Active
4,C[C@@](Cc1ccc(O)c(O)c1)(NN)C(=O)O.O [CARBIDOPA],Not Active
5,CC(C)NC[C@@H](O)COc1cccc2ccccc12 [DEXPROPRANOLOL],Not Active

# Source: ChEMBL document CHEMBL1909046, “DrugMatrix in vitro pharmacology data”
